Here are results for 36 molecules from patent US10093623B2, “Cyclic amides as MetAP-2 inhibitors” (MERCK PATENT GmbH, priority 2012, dated 2018).

For the assay, the target named is MetAP-2 (Homo sapiens, UniProt P50579). Put plainly: MetAP-2 activity measurement (coupled enzymatic reactions, Met-Arg-Ser substrate, dianisidine detection at 450 nm). The format is biochemical. The conditions noted are these: Inhibition of MetAP-2; read-out: IC50 enzyme. In a few lines: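 Coupled continuous assay with Met-Arg-Ser tripeptide substrate: released methionine oxidised by L-amino acid oxidase to give H2O2, which peroxidase uses to oxidise dianisidine, followed at 450 nm. Activity taken as slope of absorbance versus time over the visually linear region; dianisidine extinction coefficient converts to mol Met per time.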
Chain of MetAP-2 (P50579 whole entry, species assumed): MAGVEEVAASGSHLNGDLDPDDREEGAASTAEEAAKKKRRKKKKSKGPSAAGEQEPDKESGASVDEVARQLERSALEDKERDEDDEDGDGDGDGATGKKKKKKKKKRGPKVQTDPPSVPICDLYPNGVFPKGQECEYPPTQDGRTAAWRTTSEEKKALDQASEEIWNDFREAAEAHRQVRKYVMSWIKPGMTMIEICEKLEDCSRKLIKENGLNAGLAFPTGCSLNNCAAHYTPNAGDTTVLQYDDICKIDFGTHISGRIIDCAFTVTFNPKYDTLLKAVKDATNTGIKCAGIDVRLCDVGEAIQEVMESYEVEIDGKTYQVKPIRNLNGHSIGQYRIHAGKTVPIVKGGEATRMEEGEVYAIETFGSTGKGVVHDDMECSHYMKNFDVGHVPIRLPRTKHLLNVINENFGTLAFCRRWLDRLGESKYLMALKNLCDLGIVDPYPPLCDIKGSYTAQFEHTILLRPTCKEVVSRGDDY

For `O=C(NCc1cc(F)cc(Cl)c1)[C@@]1(O)CCN(c2ccc3[nH]c(-c4nc5ccccc5[nH]4)cc3c2)C1=O` [B133, N-(3-Chloro-5-fluorobenzyl)-(S)-1-[2-(1H-benzoimidazol-2-yl)-1H-indol-5-yl]-3-hydroxy-2-oxo-pyrrolidine-3-carboxamide], the IC50 – broadly, the concentration that inhibits the measured activity by half – was in the range of 0.01 to 1 µM.

In the case of `O=C1CCc2cc(N3CC[C@](O)(C(=O)NCCc4cccc(F)c4)C3=O)ccc2N1` [B6, N-[2-(3-Fluorophenyl)ethyl]-(S)-3-hydroxy-2-oxo-1-(2-oxo-1,2,3,4-tetrahydroquinolin-6-yl)-pyrrolidine-3-carboxamide], the concentration for half-maximal inhibition (IC50) lay in the range of 0.01 to 1 µM.

Regarding `N#CCn1cc(N2CCC(O)(C(=O)NCc3cc(F)cc(Cl)c3)C2=O)cn1` (stereo not drawn) [B87, N-(3-Chloro-5-fluorobenzyl)-1-(1-cyanomethyl-1H-pyrazol-4-yl)-3-hydroxy-2-oxopyrrolidine-3-carboxamide], the half-maximal inhibitory concentration (IC50) was in the range of 0.01 to 1 µM.

As to `O=C(NCc1cc(F)cc(Cl)c1)C1(O)CCCN(c2ccccc2)C1=O` (stereo not drawn) [A65, N-(3-Chloro-5-fluorobenzyl)-3-hydroxy-2-oxo-1-phenylpiperidine-3-carboxamide], the half-inhibitory concentration (IC50) fell in the range of 0.01 to 1 µM.

Consider `Cc1ccc(N2CC[C@](O)(C(=O)NCc3cc(F)cc(Cl)c3)C2=O)c(F)c1` [B66, N-(3-Chloro-5-fluorobenzyl)-(S)-1-(2-fluoro-4-methylphenyl)-3-hydroxy-2-oxopyrrolidine-3-carboxamide], for which the IC50 was 0.01 to 1 µM.

`NC(=O)c1cccc(N2CCC(O)(C(=O)NCCc3ccccc3C(F)(F)F)C2=O)c1` (stereo not drawn) [A144, N-[2-(2-Trifluoromethylphenyl)-ethyl]-1-(3-carbamoylphenyl)-3-hydroxy-2-oxopyrrolidine-3-carboxamide]: the half-inhibitory concentration (IC50) lay within 0.01 to 1 µM.

Regarding `Cc1nnc(CN2CCC(O)(C(=O)NCc3cc(F)cc(Cl)c3)C2=O)o1` (stereo not drawn) [A290, N-(3-Chloro-5-fluorobenzyl)-3-hydroxy-1-(5-methyl-1,3,4-oxadiazol-2-ylmethyl)-2-oxo-pyrrolidine-3-carboxamide], the IC50 lay within 1 to 10 µM.

For `CNC(=O)[C@H]1CC[C@H](CN2CCC(O)(C(=O)NCc3cc(F)cc(Cl)c3)C2=O)CC1` (stereo partly drawn) [A278, N-(3-Chloro-5-fluorobenzyl)-3-hydroxy-1-(4-methylcarbamoyl-cyclohexylmethyl)-2-oxo-pyrrolidine-3-carboxamide], the 50% inhibitory concentration (IC50) was 0.01 to 1 µM.

Regarding `CC(=O)Nc1ccc(N2CC[C@](O)(C(=O)NCc3cccc(F)c3Cl)C2=O)cn1` [B9, N-(2-Chloro-3-fluorobenzyl)-(S)-1-(6-acetylaminopyridin-3-yl)-3-hydroxy-2-oxopyrrolidine-3-carboxamide], the IC50 was 0.01 to 1 µM.

As for `O=C(NCc1cc(F)cc(Cl)c1)C1(O)CCN(Cc2nc3ccccc3[nH]2)C1=O` (stereo not drawn) [A269, N-(3-chloro-5-fluorobenzyl)-1-(1H-benzimidazol-2-ylmethyl)-3-hydroxy-2-oxopyrrolidine-3-carboxamide], the IC50 lay within 1 to 10 µM.

Turning to `COc1ccc(Cl)cc1N1CCC(O)(C(=O)NCc2cc(F)cc(Cl)c2)C1=O` (stereo not drawn) [B13, 1-(5-Chloro-2-methoxyphenyl)-3-hydroxy-2-oxopyrrolidine-3-carboxylic acid 3-chloro-5-fluorobenzylamide], the IC50 lay in the range of 1 to 10 µM.

For `O=C(NCc1cc(F)cc(Cl)c1)C1(O)CCN(C[C@H]2CC[C@@H](C(=O)O)CC2)C1=O` (stereo partly drawn) [A226, 4-[3-(3-Chloro-5-fluorobenzyl-carbamoyl)-3-hydroxy-2-oxo-pyrrolidin-1-ylmethyl]cyclo-hexanecarboxylic acid], the IC50 is 1 to 10 µM.

Turning to `O=C1NCCc2cc(N3CC[C@](O)(C(=O)NCc4cc(F)cc(Cl)c4)C3=O)ccc21` [A96, N-(3-Chloro-5-fluorobenzyl)-(S)-3-hydroxy-2-oxo-1-(1-oxo-1,2,3,4-tetrahydroisoquinolin-6-yl)pyrrolidine-3-carboxamide], the IC50 was 0.01 to 1 µM.

On to `NC(=O)c1cccc(N2CCC(O)(C(=O)NCCc3cc(F)cc(F)c3)C2=O)c1` (stereo not drawn) [A201, N-[2-(3,5-Difluorophenyl)ethyl]-1-(3-carbamoylphenyl)-3-hydroxy-2-oxopyrrolidine-3-carboxamide], for which the IC50 was in the range of 0.01 to 1 µM.

Turning to `O=C1N(Cc2ccccc2)CCCC1(O)CNCc1cc(F)cc(Cl)c1` (stereo not drawn) [B31, 1-Benzyl-3-[(3-chloro-5-fluorobenzylamino)methyl]-3-hydroxypiperidin-2-one], the IC50 lay in the range of 0.01 to 1 µM.

As to `O=C(NCc1cc(F)cc(Cl)c1)C1(O)CCN([C@H]2CCNC2)C1=O` (stereo partly drawn) [A233, N-(3-Chloro-5-fluorobenzyl)-(S)-3-hydroxy-2-oxo-[1,3′]bipyrrolidinyl-3-carboxamide], the IC50 is greater than 10 µM.

For `O=C(NCCc1cccc(F)c1)[C@@]1(O)CCN(c2ccc3[nH]ccc3c2)C1=O` [B10], the IC50 is 0.01 to 1 µM.

With `O=C(NCc1ccccn1)[C@@]1(O)CCCN(Cc2cccc(F)c2F)C1=O` [A259, N-(Pyridin-2-ylmethyl)-(S)-1-(2,3-difluorobenzyl)-3-hydroxy-2-oxopiperidine-3-carboxamide], the half-maximal inhibitory concentration (IC50) is greater than 10 µM.

With `COc1cc(Cl)c(C)cc1N1CCC(O)(C(=O)NCc2cc(F)cc(Cl)c2)C1=O` (stereo not drawn) [B12, N-(3-Chloro-5-fluorobenzyl)-1-(4-chloro-2-methoxy-5-methyl-phenyl)-3-hydroxy-2-oxo-pyrrolidine-3-carboxamide], the IC50 is 1 to 10 µM.

`O=C1N(c2ccccc2)CCC1(O)CNCc1cccc(F)c1` (stereo not drawn) [B48, 3-[(3-Fluorobenzylamino)-methyl]-3-hydroxy-1-phenyl-pyrrolidin-2-one]: the IC50 lay in the range of 1 to 10 µM.

With `NS(=O)(=O)c1cccc(N2CCC(O)(C(=O)NCc3cc(F)cc(Cl)c3)C2=O)c1` (stereo not drawn) [B107, N-(3-Chloro-5-fluorobenzyl)-3-hydroxy-2-oxo-1-(3-sulfamoyl-phenyl)pyrrolidine-3-carboxamide], the half-inhibitory concentration (IC50) lay within 0.01 to 1 µM.

Take `CC(=O)OC1(C(=O)NCc2cc(F)cc(Cl)c2)CCN(c2ccc3c(c2)CCC(=O)N3)C1=O` (stereo not drawn) [B91, 3-(3-Chloro-5-fluorobenzyl-carbamoyl)-2-oxo-1-(2-oxo-1,2,3,4-tetrahydroquinolin-6-yl)-pyrrolidin-3-yl acetate]: the IC50 was in the range of 1 to 10 µM.

In the case of `NCCOCCNC(=O)c1cc2cc(N3CC[C@](O)(C(=O)NCc4cc(F)cc(Cl)c4)C3=O)ccc2[nH]1` [B113, N-[2-(2-Aminoethoxy)ethyl]-5-[(S)-3-(3-chloro-5-fluorobenzylcarbamoyl)-3-hydroxy-2-oxopyrrolidin-1-yl]-1H-indole-2-carboxamide], the concentration for half-maximal inhibition (IC50) was in the range of 0.01 to 1 µM.

As for `N#Cc1ccc(N2CC[C@@](O)(C(=O)NCc3cc(F)cc(Cl)c3)C2=O)cn1` [A106, N-(3-Chloro-5-fluorobenzyl)-(R)-1-(6-cyanopyridin-3-yl)-3-hydroxy-2-oxopyrrolidine-3-carboxamide], the IC50 is greater than 10 µM.

Regarding `O=C1CCc2cc(N3CCC(O)(C(=O)NCCc4cccc(F)c4)C3=O)ccc2N1` (stereo not drawn) [A183, N-[2-(3-Fluorophenyl)ethyl]-3-hydroxy-2-oxo-1-(2-oxo-1,2,3,4-tetrahydroquinolin-6-yl)-pyrrolidine-3-carboxamide], the concentration for half-maximal inhibition (IC50) was in the range of 0.01 to 1 µM.

As to `CC1CCC(N2CCC(O)(C(=O)NCc3cc(F)cc(Cl)c3)C2=O)CC1` (stereo not drawn) [A293, N-(3-Chloro-5-fluorobenzyl)-3-hydroxy-1-(4-methylcyclohexyl)-2-oxopyrrolidine-3-carboxamide], the IC50 lay within 0.01 to 1 µM.

As for `O=C(NCCc1cc(F)cc(Cl)c1)[C@]1(O)CCN(c2ccc3[nH]ncc3c2)C1=O` [A192, N-[2-(3-Chloro-5-fluorophenyl)-ethyl]-(R)-3-hydroxy-1-(1H-indazol-5-yl)-2-oxopyrrolidine-3-carboxamide], the IC50 fell in the range of 1 to 10 µM.

Turning to `O=C(NCc1ccc(F)cc1)[C@]1(O)CCCN(Cc2cccc(F)c2F)C1=O` [A262, N-(4-Fluorobenzyl)-(R)-1-(2,3-difluorobenzyl)-3-hydroxy-2-oxo-piperidine-3-carboxamide], the half-maximal inhibitory concentration (IC50) was greater than 10 µM.

Take `COc1ccc(CN2CC[C@](O)(C(=O)NCc3cc(F)cc(Cl)c3)C2=O)cc1` [A181, N-(3-Chloro-5-fluorobenzyl)-(S)-3-hydroxy-1-(4-methoxybenzyl)-2-oxopyrrolidine-3-carboxamide]: the IC50 was in the range of 0.01 to 1 µM.

In the case of `O=C(NCc1cc(F)cc(Cl)c1)C1(O)CCCN(c2cc(C(F)(F)F)ccc2F)C1=O` (stereo not drawn) [B67, N-(3-Chloro-5-fluorobenzyl)-1-(2-fluoro-5-trifluoromethyl-phenyl)-3-hydroxy-2-oxo-piperidine-3-carboxamide], the IC50 was 1 to 10 µM.

In the case of `O=C(NC1CCC1)c1cccc(N2CC[C@](O)(C(=O)NCc3cc(F)cc(Cl)c3)C2=O)c1` [A163, N-(3-Chloro-5-fluorobenzyl)-(S)-1-(3-cyclobutylcarbamoyl-phenyl)-3-hydroxy-2-oxo-pyrrolidine-3-carboxamide], the IC50 was 0.01 to 1 µM.

“(S)-3-(1,1-Dioxo-1l6- thiomorpholine-4-carbonyl)-3- hydroxy-1-phenylpyrrolidin-2-one [A56]”: the IC50 is greater than 10 µM.

With `O=C1N(Cc2ccccc2)CCC1(O)C(=O)N1Cc2ccccc2C1` (stereo not drawn) [A268, 1-benzyl-3-(1,3-dihydroisoindole-2-carbonyl)-3-hydroxypyrrolidin-2-one], the half-inhibitory concentration (IC50) was greater than 10 µM.

For the molecule `O=C1CCc2cc(N3CC[C@](O)(C(=O)NCc4cc(Cl)ccc4F)C3=O)ccc2N1` [B4, N-(5-Chloro-2-fluorobenzyl)-(S)-3-hydroxy-2-oxo-1-(2-oxo-1,2,3,4-tetrahydroquinolin-6-yl)-pyrrolidine-3-carboxamide], the half-inhibitory concentration (IC50) was in the range of 0.01 to 1 µM.

For `NC(=O)c1c[nH]c2ccc(N3CC[C@](O)(C(=O)NCc4cc(F)cc(Cl)c4)C3=O)cc12` [A238, 5-[(S)-3-(3-Chloro-5-fluorobenzylcarbamoyl)-3-hydroxy-2-oxopyrrolidin-1-yl]-1H-indole-3-carboxamide], the half-inhibitory concentration (IC50) fell in the range of 0.01 to 1 µM.

As to `O=C(c1cccc(N2CC[C@](O)(C(=O)NCc3cc(F)cc(Cl)c3)C2=O)c1)N1CCOCC1` [A72, N-(3-Chloro-5-fluorobenzyl)-(S)-3-hydroxy-1-[3-(morpholine-4-carbonyl)phenyl]-2-oxopyrrolidine-3-carboxamide], the IC50 fell in the range of 0.01 to 1 µM.
